Test system: ELAM-1 dependent adhesion of cultured human leukemia HL60 cells
Assay: Binding of HL60 cells to IL-1β-activated human vascular endothelial cells (cell adhesion count)
Format: cell-based
Conditions: for Cell adhesion count (%): % of control (HL60 bound to IL-1β-activated HUVEC = 100%); for Cell adhesion count: adhered HL60 cells on HUVEC activated with IL-1β 10U/ml
Protocol: The effect of the synthetic sugar on the binding of activated human vascular endothelial cells and cultured human leukemia HL60 cells
Cultured human vascular endothelial cells were separated from the human umbilical vein by collagenase treatment and cultured in a culture flask coated with 1% gelatin or fibronectin at a concentration of 0.02 mg/cm². The growth medium used was prepared by adding 15% fetal calf serum (FCS), 45 mg/l ECGS, 90 mg/l heparin and 40 mg/l gentamicin to medium 199. The proliferation of the cultured human leukemia cell line HL60 was maintained using 10% FCS-containing RPMI-1640. Both cells were cultured in a CO₂ incubator (5% CO₂, 95% air) at 37°C.
The cultured human umbilical vein endothelial cells (HUVEC) were seeded on a 96-well microtiter plate which had been precoated with 0.1% gelatin and were incubated until the growth became confluent. After the cells were washed with 10% FCS-containing Dulbecco's modified Eagle's medium (DMEM), 100 µl of 10% FCS-DMEM containing recombinant human interleukin-1β (IL-1β) was added. The cells were then cultured in a CO₂ incubator at 37°C for 4 hours (activation). The HL60 cells were washed twice with serum-free DMEM, suspended in 0.5% glutaldehyde-containing Hanks' solution and fixed on wet ice for 30 minutes.
The fixed cells were washed twice with serum-free DMEM to remove the fixative. Then, 10% FCS-containing DMEM was added to the cells so as to provide a suspension of 2x10⁶ cells/ml, which was then preserved on wet ice till use.
The HUVEC activated above was washed with 10% FCS-containing DMEM and 50µl of 10% FCS-DMEM containing either anti-ELAM-1 antibody (BBA 2, British Biotechnology Ltd., Abinton) or the test substance was added followed by incubation at room temperature for 30 minutes. The fixed HL60 cells were added in 50 µl aliquots and the incubation was further continued at room temperature for 45 minutes.
After the unbound HL60 cells were washed off, the center of each well was photographed and the number of adhered cells in the photographing field was counted. With the number of HL60 cells bound to the IL-1β-activated HUVEC being taken as 100%, the effect of addition of the test substance was evaluated.

[1] = concentration of 500 µg/ml, referring to Table 2
[2] = concentration of 100 µg/ml, referring to Table 1

Molecule | Cell adhesion count (%) (Table 2, 50 µg/ml, n=6) | Cell adhesion count (Table 2, 50 µg/ml, n=6) | Cell adhesion count (%) (Table 2, 500 µg/ml, n=6) | Cell adhesion count (Table 2, 500 µg/ml, n=6) | inhibit the adhesion of HL60 cells to activated HUVEC [1] [%] | Cell adhesion count (%) (Table 1, 100 µg/ml, n=5) | Cell adhesion count (Table 1, 100 µg/ml, n=5) | inhibit the adhesion of HL60 cells to activated HUVEC [2] [%]
6-O-(5-acetamido-3,5-dideoxy-D-glycero-α-D-galacto-2-nonulopyranosylono-1',5-N-lactam)-1,5-dideoxy-1,5-imino-D-galactitol [Example (10)] | 93.4 | 494.7 | 82.5 | 436.2 | 17.5 |  |  | 
CC(=O)N1C(=O)C2(OCC3NCC(O)C(O)C3O)CC(O)C1C(C(O)C(O)CO)O2 [Example (8), 6-O-(5-acetamido-3,5-dideoxy-D-glycero-α-D-galacto-2-nonulopyranosylono-1',5-N-lactam)-1,5-dideoxy-1,5-imino-D-glucitol] | 89.6 | 473.7 | 81.1 | 428.5 | 18.9 |  |  | 
CC(=O)N[C@H]1[C@H]([C@H](O)[C@H](O)CO)O[C@@](OC[C@@H]2[C@@H](O)[C@H](O)[C@@H](O)CN2C)(C(=O)O)C[C@@H]1O [Example (9), O-(5-acetamido-3,5-dideoxy-D-glycero-α-D-galacto-2-nonulopyranosylonic acid)-(2→6)-1,5-dideoxy-N-methyl-1,5-imino-D-glucitol] |  |  |  |  |  | 49.1 | 188.4 | 50.9
CC(=O)N[C@H]1[C@H]([C@H](O)[C@H](O)CO)O[C@@](OC[C@@H]2[C@H](O)[C@H](O)[C@@H](O)CN2C)(C(=O)O)C[C@@H]1O [Example (11), O-(5-acetamido-3,5-dideoxy-D-glycero-α-D-galacto-2-nonulopyranosylonic acid)-(2→6)-1,5-dideoxy-N-methyl-1,5-imino-D-galactitol] |  |  |  |  |  | 40.4 | 155.0 | 59.6

From EP0655457A1, “MORANOLINE DERIVATIVE” (NIPPON SHINYAKU COMPANY, LIMITED, priority 1992, dated 1994)
